From US11046687B2, “Polycyclic amide compound, preparation process and use thereof” (HEBEI GRANDIOS PHARMA CO., LTD., priority 2018, dated 2021)

Tests used:
[1] = tested on: breast cancer cells (MDA); experiment: MTT assay, in vitro growth inhibition, MDA cells; type: cell-based; parameters: in vitro growth inhibition rate, MDA: unit not given here; conditions: test drug concentration 4 μg/mL, 37° C., 3 days; for inhibition at 4 µg/mL: 72 h, read-out: in vitro growth inhibition rate, MDA
Method: (§1) The in vitro cytotoxicity of the compounds of the present invention was tested with reference to the experimental methods reported in the literature (Liu Yanqin et al., Organic Chemistry, 2002, 22(4), 279-282). The human oral epithelial cancer cells (KB), human lung cancer cells (A-549), and breast cancer cells (MDA) were used to test the in vitro growth inhibition rate of the compounds by MTT assay. Cells were cultured at 37° C. for 3 days under a test drug concentration of 4 μg/mL.

[2] = tested on: human lung cancer cells (A-549); experiment: MTT assay, in vitro growth inhibition, A-549 cells; type: cell-based; parameters: in vitro growth inhibition rate, A549: unit not given here; conditions: test drug concentration 4 μg/mL, 37° C., 3 days; for inhibition at 4 µg/mL: Homo sapiens, A549, 72 h, read-out: in vitro growth inhibition rate, A549
Method: as §1

| SMILES | in vitro growth inhibition rate, MDA [1] | in vitro growth inhibition rate, A549 [2] | inhibition at 4 µg/mL [1] | inhibition at 4 µg/mL [2] |
| --- | --- | --- | --- | --- |
| CCN(C)CCNC(=O)c1cn(-c2ccc(F)cc2)c(=O)c2cc3cccc(C)c3nc12 [Compound 86] | 14 | 9.8 |  |  |
| CNC(C)CNC(=O)c1cccc2cc3ccccc3nc12 (stereo not shown) [Compound 5] | −5.1 | −11 |  |  |
| CCN(C)CCNC(=O)c1cn(CC)c(=O)c2cc3cccc(C)c3nc12 [Compound 90, N-[2-(N-ethylmethylamino)ethyl]-2-ethyl-6-methyl-1-oxo-1,2-dihydrobenzo[b][1,6]naphthyridine-4-carboxamide] |  |  | 6.4% | 3.5% |
| Cc1cccc2nc3cccc(C(=O)NC(C)CN(C)C(C)C)c3nc12 (stereo not shown) [Compound 66, N-[1-methyl-2-(N-isopropylmethylamino)ethyl]-1-methylphenazine-9-carboxamide] |  |  | 1.9% | 1.2% |
| CCN(C)CCNC(=O)c1cn(C)c(=O)c2cc3cccc(C)c3nc12 [Compound 88] | 1.4 | 1.6 |  |  |
| CNCCNC(=O)c1cn(-c2ccc(F)cc2)c(=O)c2cc3cccc(C)c3nc12 [Compound 85] | −1.8 | −3.4 |  |  |
| CCN(C)C(C)CNC(=O)c1cccc2cc3ccccc3nc12 (stereo not shown) [Compound 7] | 4.4 | −5.8 |  |  |
| CCN(CC)C(C)CNC(=O)c1cccc2cc3ccccc3nc12 (stereo not shown) [Compound 8] | −4.7 | −6.6 |  |  |
| Cc1cccc2nc3cccc(C(=O)NCC(C)N(C)C(C)C)c3nc12 (stereo not shown) [Compound 50, N-[2-(N-isopropylmethylamino)propyl]-1-methylphenazine-9-carboxamide] |  |  | -7.2% | -7.8% |
| CN(C)CCNC(=O)c1cccc2cc3ccccc3nc12 [DACA (1), reference compound] |  |  | 2% | 1.7% |
| CC(C)N(C)C(C)CNC(=O)c1cccc2cc3ccccc3nc12 (stereo not shown) [Compound 10, N-[2-(N-isopropylmethylamino)propyl]acridine-4-carboxamide] |  |  | 1.2% | 3.3% |
| CCNCCNC(=O)c1cn(C)c(=O)c2cc3cccc(C)c3nc12 [Compound 87] | 3.9 | 5 |  |  |
| CCNC(C)CNC(=O)c1cccc2cc3ccccc3nc12 (stereo not shown) [Compound 6] | −1.5 | −5 |  |  |
| CCNCC(C)NC(=O)c1cccc2cc3ccccc3nc12 (stereo not shown) [Compound 22] | 2.5 | 3.1 |  |  |
